Each structure is given as a SMILES string. Some results are limits rather than exact numbers.

ROCK2, sequence (O75116 whole entry, species assumed): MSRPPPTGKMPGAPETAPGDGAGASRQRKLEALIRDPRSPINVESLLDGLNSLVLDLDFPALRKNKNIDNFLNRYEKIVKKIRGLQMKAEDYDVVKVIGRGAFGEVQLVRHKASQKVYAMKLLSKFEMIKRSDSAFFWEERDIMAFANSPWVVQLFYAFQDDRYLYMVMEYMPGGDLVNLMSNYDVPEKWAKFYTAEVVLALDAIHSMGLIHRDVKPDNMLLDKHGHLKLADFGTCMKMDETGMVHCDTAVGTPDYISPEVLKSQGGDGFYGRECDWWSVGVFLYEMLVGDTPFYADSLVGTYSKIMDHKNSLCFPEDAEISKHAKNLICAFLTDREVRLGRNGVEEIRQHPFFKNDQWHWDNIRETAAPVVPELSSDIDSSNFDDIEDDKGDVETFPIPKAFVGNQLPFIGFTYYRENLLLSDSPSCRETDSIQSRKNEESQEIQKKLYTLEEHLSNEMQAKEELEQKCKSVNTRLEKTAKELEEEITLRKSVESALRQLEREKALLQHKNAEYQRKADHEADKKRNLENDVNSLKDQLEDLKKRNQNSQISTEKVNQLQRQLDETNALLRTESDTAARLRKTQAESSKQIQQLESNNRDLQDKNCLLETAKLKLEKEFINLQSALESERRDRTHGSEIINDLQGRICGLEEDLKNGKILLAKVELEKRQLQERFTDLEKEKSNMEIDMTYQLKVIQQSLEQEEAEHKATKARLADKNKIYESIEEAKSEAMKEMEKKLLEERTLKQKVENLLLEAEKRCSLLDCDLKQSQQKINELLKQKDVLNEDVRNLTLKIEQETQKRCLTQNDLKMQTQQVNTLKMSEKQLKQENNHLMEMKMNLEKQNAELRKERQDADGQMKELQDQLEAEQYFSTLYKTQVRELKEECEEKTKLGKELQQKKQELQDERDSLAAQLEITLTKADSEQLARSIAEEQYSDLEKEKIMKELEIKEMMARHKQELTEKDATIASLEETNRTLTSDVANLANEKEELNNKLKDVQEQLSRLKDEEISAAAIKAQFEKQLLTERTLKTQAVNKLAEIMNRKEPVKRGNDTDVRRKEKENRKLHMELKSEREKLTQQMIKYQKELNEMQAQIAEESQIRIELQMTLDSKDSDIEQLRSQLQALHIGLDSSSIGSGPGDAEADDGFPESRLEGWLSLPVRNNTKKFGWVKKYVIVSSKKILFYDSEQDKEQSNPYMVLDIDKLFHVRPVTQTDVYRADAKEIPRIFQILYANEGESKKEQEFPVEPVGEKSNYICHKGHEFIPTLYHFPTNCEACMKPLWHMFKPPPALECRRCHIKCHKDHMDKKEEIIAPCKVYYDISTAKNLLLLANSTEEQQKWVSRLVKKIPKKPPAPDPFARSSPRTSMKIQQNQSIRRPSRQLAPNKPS

The assay concerns the target ROCK2 (Homo sapiens, UniProt O75116). Kind of assay: ROCK2 assay (Caliper LABCHIP peptide phosphorylation). Format: biochemical. The note with it: 5 μM ATP, 1.5 μM peptide substrate. How it is done:
The effectiveness of compounds of the present invention as ROCK inhibitors can be determined in a 30 μL assay containing 20 mM HEPES, pH 7.5, 20 mM MgCl2, 0.015% Brij-35, 4 mM DTT, 5 μM ATP and 1.5 μM peptide substrate (FITC-AHA-AKRRRLSSLRA-OH) (SEQ ID NO.1). Compounds were dissolved in DMSO so that the final concentration of DMSO was <2%, and the reaction was initiated with Rho kinase variants. After incubation, the reaction was terminated by the addition of EDTA and the phosphorylated and non-phosphorylated peptides separated using a LABCHIP® 3000 Reader (Caliper Life Sciences). […] Compounds were tested in dose-response format, and the inhibition of kinase activity was calculated at each concentration of compound. The inhibition data were fit using a curve-fitting program to determine the IC50; i.e., the concentration of compound required to inhibit 50% of kinase activity.
Representative Examples were tested in the ROCK2 assay described above and found having ROCK2 inhibitory activity. The ranges of the ROCK2 IC50 values are as follows: ROCK2 IC50: ++++ (<3 nM) +++ (3-30 nM) ++ (30-300 nM) + (300-2000 nM)
Usually IC50 stands for the concentration that inhibits the measured activity by half. High values mean a need for much substance, low ones inhibition by little substance. `O=C1N(c2ccc(-c3cn[nH]c3)cc2)CCC12Cc1cc(F)ccc1N2` (racemic) [Example 7, 1′-(4-(1H-Pyrazol-4-yl)phenyl)-5-fluorospiro[indoline-2,3′-pyrrolidin]-2′-one] returned an IC50 of 3 to 30 nM.
The value for `O=C1N(c2ccc(-c3cn[nH]c3)cc2)CCC12Cc1ccccc1O2` (racemic) [Example 29, 1′-(4-(1H-Pyrazol-4-yl)phenyl)-3H-spiro[benzofuran-2,3′-pyrrolidin]-2′-one] was under 3 nM.
For `COc1cc(N2CCC3(Cc4ccccc4N3)C2=O)ccc1-c1cn[nH]c1` (racemic) [Example 32, 1′-(3-methoxy-4-(1H-pyrazol-4-yl)phenyl)spiro[indoline-2,3′-pyrrolidin]-2′-one] the value was under 3 nM.
For `COc1cc(F)c2c(c1)NC1(CCN(c3ccc(-c4cn[nH]c4)cc3)C1=O)C2` (racemic) [Example 38, 1′-(4-(1H-Pyrazol-4-yl)phenyl)-4-fluoro-6-methoxyspiro[indoline-2,3′-pyrrolidin]-2′-one] the value was under 3 nM.
On to `O=C1N(c2ccc(-c3cn[nH]c3)cc2)CCC12Cc1ccccc1N2` (single isomer, unassigned) [Example 2, 1′-(4-(1H-Pyrazol-4-yl)phenyl)spiro[indoline-2,3′-pyrrolidin]-2′-one], for which the IC50 is under 3 nM.
For `O=C1N(c2ccc(-c3cn[nH]c3)cc2)CCC12Cc1ccccc1N2` (single isomer, unassigned) [Example 3, 1′-(4-(1H-Pyrazol-4-yl)phenyl)spiro[indoline-2,3′-pyrrolidin]-2′-one] the value was 30 to 300 nM; for `COc1ccc2c(c1)NC1(CCN(c3ccc(-c4cn[nH]c4)cc3)C1=O)C2` (single isomer, unassigned) [Example 5, 1′-(4-(1H-Pyrazol-4-yl)phenyl)-6-methoxyspiro[indoline-2,3′-pyrrolidin]-2′-one], under 3 nM; for `COc1ccc2c(c1)NC1(CCN(c3ccc(-c4cn[nH]c4)cc3)C1=O)C2` (single isomer, unassigned) [Example 6, 1′-(4-(1H-Pyrazol-4-yl)phenyl)-6-methoxyspiro[indoline-2,3′-pyrrolidin]-2′-one], 3 to 30 nM.
`O=C1N(c2ccc(-c3cn[nH]c3)cc2)CCC12Cc1cc(F)ccc1N2` (single isomer, unassigned) [Example 8, 1′-(4-(1H-Pyrazol-4-yl)phenyl)-5-fluorospiro[indoline-2,3′-pyrrolidin]-2′-one] yielded an IC50 of 3 to 30 nM.
For `O=C1N(c2ccc(-c3cn[nH]c3)cc2)CCC12Cc1cc(F)ccc1N2` (single isomer, unassigned) [Example 9, 1′-(4-(1H-Pyrazol-4-yl)phenyl)-5-fluorospiro[indoline-2,3′-pyrrolidin]-2′-one], the IC50 lay within 30 to 300 nM.
The value for `O=C1N(c2ccc(-c3cn[nH]c3)cc2)CCC12Cc1ccc(F)cc1C2` (single isomer, unassigned) [Example 15, 1′-(4-(1H-Pyrazol-4-yl)phenyl)-5-fluoro-1,3-dihydrospiro[indene-2,3′-pyrrolidin]-2′-one] was 3 to 30 nM; that for `O=C1N(c2ccc(-c3cn[nH]c3)cc2)CCC12Cc1ccc(F)cc1C2` (single isomer, unassigned) [Example 16, 1′-(4-(1H-Pyrazol-4-yl)phenyl)-5-fluoro-1,3-dihydrospiro[indene-2,3′-pyrrolidin]-2′-one] was 3 to 30 nM; that for `COc1nc(N2CCC3(Cc4ccc(F)cc4C3)C2=O)ccc1-c1cn[nH]c1` (single isomer, unassigned) [Example 17, 5-Fluoro-1′-(6-methoxy-5-(1H-pyrazol-4-yl)pyridin-2-yl)-1,3-dihydrospiro[indene-2,3′-pyrrolidin]-2′-one] was under 3 nM.
The value for `COc1nc(N2CCC3(Cc4ccc(F)cc4C3)C2=O)ccc1-c1cn[nH]c1` (single isomer, unassigned) [Example 18, 5-Fluoro-1′-(6-methoxy-5-(1H-pyrazol-4-yl)pyridin-2-yl)-1,3-dihydrospiro[indene-2,3′-pyrrolidin]-2′-one] was 3 to 30 nM.

(Values after patent US10696674B2, “Spirolactams as inhibitors of ROCK” (BRISTOL-MYERS SQUIBB COMPANY, priority 2016, dated 2020).)
